# Measurements: article doi:10.1101/2024.04.25.591105v1 (biorxiv, 2024)
# Target: 14-3-3σΔC / ERα phosphopeptide complex (crystals) (Homo sapiens, UniProt P03372+P31947)
# Assay: X-ray crystallography, soaking
# Assay type: binding
# Details: ternary complex with Ac-ERα phosphopeptide
# Sequence of 14-3-3σΔC / ERα phosphopeptide complex (crystals) (P31947 1-231, stated change not applied, other chains not shown): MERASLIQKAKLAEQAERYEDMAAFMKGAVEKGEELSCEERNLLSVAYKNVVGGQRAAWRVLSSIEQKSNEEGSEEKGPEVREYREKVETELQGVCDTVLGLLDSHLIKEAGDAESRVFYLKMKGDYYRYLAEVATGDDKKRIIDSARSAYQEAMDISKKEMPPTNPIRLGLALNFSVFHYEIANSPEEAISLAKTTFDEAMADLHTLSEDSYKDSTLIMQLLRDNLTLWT
row,Compound,"X-ray crystallography, soaking"
1,COC[C@H]1CC[C@@H]2/C1=C/[C@]1(C)C(=C([C@H](C)CNC(C)=O)C[C@@H]1O)[C@@H](O)[C@H](O)[C@@H]2C [FC-NAg],8BZT (FC-NAg)
2,C=CC(C)(C)OC[C@H]1O[C@H](O[C@@H]2C3=C([C@H](C)CNC(C)=O)C[C@H](O)[C@]3(C)/C=C3\[C@@H](COC)CC[C@H]3[C@@H](C)[C@H]2O)[C@H](O)[C@@H](O)[C@@H]1O [FC-NAc],8BZH (FC-NAc)
